Results reported in ChEMBL document CHEMBL3868595, “Plazomicin is effective in a non-human primate pneumonic plague model” (Bioorg Med Chem, 2016).

Columns and labels:
Yersinia pestis [1] = assay: (§1) Antibacterial activity against Yersinia pestis Colorado 92 infected in African green monkey B6861 model assessed as bacterial burden in tracheobronchial lymph nodes at 6.25 mg/kg, iv administered within 6 hrs post onset of sustained fever as 30 mins infusion for 5 days (reference value: 7.7 10^9CFU/g); format: functional, CO92, Lymph node
Yersinia pestis [2] = assay: Antibacterial activity against Yersinia pestis Colorado 92 infected in African green monkey B6106 model assessed as bacterial burden in kidney at 25 mg/kg, iv administered within 6 hrs post onset of sustained fever as 30 mins infusion for 5 days (reference value: 7.1 10^7CFU/g); format: functional, CO92
African green monkey [3] = assay: Toxicity in African green monkey 7972 model infected with Yersinia pestis Colorado 92 assessed as serum gamma glutamyl-transferase level at 25 mg/kg, iv administered within 6 hrs post onset of sustained fever as 30 mins infusion for 10 days (reference value: 46 IU/L); format: organism-based; conditions: chlorocebus sabaeus, in vivo
Yersinia pestis [4] = assay: Antibacterial activity against Yersinia pestis Colorado 92 infected in African green monkey B6106 model assessed as bacterial burden in liver at 25 mg/kg, iv administered within 6 hrs post onset of sustained fever as 30 mins infusion for 5 days (reference value: 5.2 10^8CFU/g); format: functional, CO92
Yersinia pestis [5] = assay: Antibacterial activity against Yersinia pestis Colorado 92 infected in African green monkey C2083 model assessed as bacterial burden in spleen at 12.5 mg/kg, iv administered within 6 hrs post onset of sustained fever as 30 mins infusion for 5 days (reference value: 1.6 10^9CFU/g); format: functional, CO92
African green monkey [6] = assay: Toxicity in African green monkey B6428 model infected with Yersinia pestis Colorado 92 assessed as serum alanine aminotransferase level at 25 mg/kg, iv administered within 6 hrs post onset of sustained fever as 30 mins infusion for 10 days (reference value: 83 IU/L); format: organism-based; conditions: chlorocebus sabaeus, in vivo
African green monkey [7] = assay: Toxicity in African green monkey 7643 model infected with Yersinia pestis Colorado 92 assessed as serum alanine aminotransferase level at 25 mg/kg, iv administered within 6 hrs post onset of sustained fever as 30 mins infusion for 10 days (reference value: 53 IU/L); format: organism-based; conditions: chlorocebus sabaeus, in vivo
Yersinia pestis [8] = assay: Antibacterial activity against Yersinia pestis Colorado 92 infected in African green monkey B6872 model assessed as bacterial burden in kidney at 25 mg/kg, iv administered within 6 hrs post onset of sustained fever as 30 mins infusion for 5 days (reference value: 7.1 10^7CFU/g); format: functional, organism-based; conditions: CO92
Yersinia pestis [9] = assay: Antibacterial activity against Yersinia pestis Colorado 92 infected in African green monkey C2149 model assessed as bacterial burden in kidney at 6.25 mg/kg, iv administered within 6 hrs post onset of sustained fever as 30 mins infusion for 5 days (reference value: 7.1 10^7CFU/g); format: functional, CO92
Yersinia pestis [10] = assay: Antibacterial activity against Yersinia pestis Colorado 92 infected in African green monkey B6861 model assessed as bacterial burden in heart at 6.25 mg/kg, iv administered within 6 hrs post onset of sustained fever as 30 mins infusion for 5 days (reference value: 2.6 10^7CFU/g); format: functional, CO92
[11] = Clearance in African green monkey blood at 35 mg/kg administered as iv infusion twice daily for 7 consecutive days measured on day 7 by LC-MS/MS analysis; format: ADME, organism-based; conditions: chlorocebus aethiops
Yersinia pestis [12] = assay: Antibacterial activity against Yersinia pestis Colorado 92 infected in African green monkey B6436 model assessed as bacterial burden in tracheobronchial lymph nodes at 25 mg/kg, iv administered within 6 hrs post onset of sustained fever as 30 mins infusion for 5 days (reference value: 7.7 10^9CFU/g); format: functional, CO92, Lymph node
African green monkey [13] = assay: Toxicity in African green monkey B6408 model infected with Yersinia pestis Colorado 92 assessed as blood urea nitrogen level at 25 mg/kg, iv administered within 6 hrs post onset of sustained fever as 30 mins infusion for 10 days (reference value: 22 mg/dl); format: organism-based; conditions: chlorocebus sabaeus, in vivo
African green monkey [14] = assay: Toxicity in African green monkey B6140 model infected with Yersinia pestis Colorado 92 assessed as serum gamma glutamyl-transferase level at 25 mg/kg, iv administered within 6 hrs post onset of sustained fever as 30 mins infusion for 10 days (reference value: 55 IU/L); format: organism-based; conditions: chlorocebus sabaeus, in vivo
Yersinia pestis [15] = assay: Antibacterial activity against Yersinia pestis Colorado 92 infected in African green monkey B6127 model assessed as bacterial burden in lung at 25 mg/kg, iv administered within 6 hrs post onset of sustained fever as 30 mins infusion for 10 days (reference value: 7.7 10^8CFU/g); format: functional, organism-based; conditions: CO92
Yersinia pestis [16] = assay: as §1, with “monkey 8047” for “monkey B6861”, “for 10” for “for 5”; format: functional, CO92, Lymph node
Yersinia pestis [17] = assay: Antibacterial activity against Yersinia pestis Colorado 92 infected in African green monkey B6415 model assessed as bacterial burden in lung at 25 mg/kg, iv administered within 6 hrs post onset of sustained fever as 30 mins infusion for 5 days (reference value: 7.7 10^8CFU/g); format: functional, CO92
Yersinia pestis [18] = assay: Antibacterial activity against Yersinia pestis Colorado 92 infected in African green monkey B6783 model assessed as bacterial burden in liver at 12.5 mg/kg, iv administered within 6 hrs post onset of sustained fever as 30 mins infusion for 5 days (reference value: 5.2 10^8CFU/g); format: functional, CO92
African green monkey [19] = assay: Toxicity in African green monkey B6291 model infected with Yersinia pestis Colorado 92 assessed as serum creatinine level at 25 mg/kg, iv administered within 6 hrs post onset of sustained fever as 30 mins infusion for 10 days (reference value: 0.6 mg/dl); format: organism-based; conditions: chlorocebus sabaeus, in vivo
[20] = Toxicity in African green monkey 7643 model infected with Yersinia pestis Colorado 92 assessed as total white blood cell count at 25 mg/kg, iv administered within 6 hrs post onset of sustained fever as 30 mins infusion for 10 days (reference value: 6.1 10^3/microL); format: organism-based; conditions: chlorocebus aethiops, in vivo
[21] = AUC (0 to 24 hrs) in African green monkey blood at 35 mg/kg administered as iv infusion twice daily for 7 consecutive days measured on day 1 by LC-MS/MS analysis; format: ADME, organism-based; set-up: dose 35 mg/kg, time < 24 hr, route intravenous; conditions: chlorocebus aethiops
Yersinia pestis [22] = assay: Antibacterial activity against Yersinia pestis Colorado 92 infected in African green monkey B6873 model assessed as bacterial burden in lung at 12.5 mg/kg, iv administered within 6 hrs post onset of sustained fever as 30 mins infusion for 5 days (reference value: 7.7 10^8CFU/g); format: functional, CO92
Yersinia pestis [23] = assay: Antibacterial activity against Yersinia pestis Colorado 92 infected in African green monkey B6783 model assessed as bacterial burden in kidney at 12.5 mg/kg, iv administered within 6 hrs post onset of sustained fever as 30 mins infusion for 5 days (reference value: 7.1 10^7CFU/g); format: functional, CO92
Yersinia pestis [24] = assay: Antibacterial activity against Yersinia pestis Colorado 92 infected in African green monkey assessed as survival of monkey at 6.25 mg/kg, iv administered within 6 hrs post onset of sustained fever as 30 mins infusion for 5 days; format: functional; conditions: CO92, iv
Yersinia pestis [25] = assay: Antibacterial activity against Yersinia pestis Colorado 92 infected in African green monkey B6988 model assessed as bacterial burden in liver at 6.25 mg/kg, iv administered within 6 hrs post onset of sustained fever as 30 mins infusion for 5 days (reference value: 5.2 10^8CFU/g); format: functional, CO92
Yersinia pestis [26] = assay: Antibacterial activity against Yersinia pestis Colorado 92 infected in African green monkey B6672 model assessed as bacterial burden in heart at 12.5 mg/kg, iv administered within 6 hrs post onset of sustained fever as 30 mins infusion for 5 days (reference value: 2.6 10^7CFU/g); format: functional, CO92

Work on CN[C@@H]1[C@@H](O)[C@@H](O[C@@H]2[C@@H](O)[C@H](O[C@H]3OC(CNCCO)=CC[C@H]3N)[C@@H](N)C[C@H]2NC(=O)[C@@H](O)CCN)OC[C@]1(C)O [PLAZOMICIN] yielded an Activity (Yersinia pestis [1]) of 1.2 ×10⁸ CFU/g, an Activity (Yersinia pestis [2]) of 17 CFU/g and an Activity (African green monkey [3]) of 38 IU/L. It also gave an Activity (Yersinia pestis [4]) of 95 CFU/g, an Activity (Yersinia pestis [5]) of 1.5 ×10⁷ CFU/g and an Activity (African green monkey [6]) of 60 IU/L. The Activity (African green monkey [7]) was 43 IU/L, the Activity (Yersinia pestis [8]) was “Below limit of detection” and the Activity (Yersinia pestis [9]) was 16 CFU/g. It also gave an Activity (Yersinia pestis [10]) of 16 CFU/g, a clearance [11] of 1.67 mL/min/kg and an Activity (Yersinia pestis [12]) of 30 CFU/g. For the same molecule, the Activity (African green monkey [13]) was 20 mg/dL, the Activity (African green monkey [14]) was 39 IU/L and the Activity (Yersinia pestis [15]) was “Below limit of detection”. The Activity (Yersinia pestis [16]) was 2 ×10⁹ CFU/g, the Activity (Yersinia pestis [17]) was 3.2 ×10⁹ CFU/g and the Activity (Yersinia pestis [18]) was 8.4 ×10⁶ CFU/g. The Activity (African green monkey [19]) was 0.5 mg/dL, the Activity [20] was 5.7 ×10³ /uL and the AUC(0-t) at 24 h [21] was 306 µg·h/mL. For the same molecule, the Activity (Yersinia pestis [22]) was 16 CFU/g, the Activity (Yersinia pestis [23]) was 76 CFU/g and the survival at 6.25 mg/kg (Yersinia pestis [24]) was 17%. The Activity (Yersinia pestis [25]) was 17 CFU/g and the Activity (Yersinia pestis [26]) was 29 CFU/g.
